A word on the EC50: it is the concentration needed to bring the measured effect to its halfway point.

For one assay, the system named is zebrafish. Also noted: method as in 4 sources, ref 42 = [42]; PMID 21956239; doi:10.1007/s00213-011-2482-2; 42. Braida D Neurohypophyseal hormones manipulation modulate social and anxiety-related behavior in zebrafish Psychopharmacology (Berl) 2012 220 319 330 10.1007/s00213-011-2482-2 21956239 ||| ref 44 = [44]; PMID 27247142; doi:10.1016/j.bbr.2016.05.059; 44. Zimmermann FF Gaspary KV Siebel AM Bonan CD Oxytocin reversed MK-801-induced social interaction and aggression deficits in zebrafish Behav Brain Res 2016 311 368 374 10.1016/j.bbr.2016.05.059 2724 ||| ref 51 = [51]; doi:10.1163/1568539x-00003261; 51. Lindeyer CM Langen EMA Swaney WT Reader SM Nonapeptide influences on social behaviour: effects of vasotocin and isotocin on shoaling and interaction in zebrafish Behaviour 2015 152 897 915 10.1163 ||| ref 27 = [27]; PMID 26347614; doi:10.3389/fncir.2015.00039; 27. Dreosti E Lopes G Kampff AR Wilson SW Development of social behavior in young zebrafish Front Neural Circuits 2015 9 39 10.3389/fncir.2015.00039 26347614 PMC4539524. The note with it: cited from earlier work. An excerpt: Thus far, dopamine[56] and serotonin[57] in the mesolimbic system and excitation-inhibition balance[58] seem to play a prominent role in social investigation in rodents. Similarly, levels of dopamine and serotonin are modulated in socially interacting fish[59]–[61] and social preference behaviour decreases after treatment with a dopamine D1 receptor antagonist. […] In rodents, release of ... || (+ 1 further places)

A further assay deals with T1, Avpr1aa (Danio rerio, UniProt A0A8M1P1H3).
T1 sequence (A0A8M1P1H3 1-379): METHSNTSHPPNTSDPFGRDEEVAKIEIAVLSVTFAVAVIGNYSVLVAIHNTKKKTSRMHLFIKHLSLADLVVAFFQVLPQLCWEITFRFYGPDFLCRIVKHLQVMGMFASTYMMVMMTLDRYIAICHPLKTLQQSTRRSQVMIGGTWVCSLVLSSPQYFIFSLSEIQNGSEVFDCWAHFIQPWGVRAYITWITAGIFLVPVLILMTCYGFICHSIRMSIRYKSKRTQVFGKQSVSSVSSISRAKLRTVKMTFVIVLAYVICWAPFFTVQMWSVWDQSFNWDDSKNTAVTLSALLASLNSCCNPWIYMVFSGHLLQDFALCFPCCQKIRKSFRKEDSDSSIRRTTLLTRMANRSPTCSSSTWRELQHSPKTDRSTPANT
The experiment in a line: Inositol phosphate accumulation assay, agonist potency at Avpr1aa. The assay is classed as cell-based, zebrafish. On the procedure:
(§1) The receptor constructs were ordered from GeneScript and subcloned into a pcDNA3.1/CT-GFP-TOPO vector. The coding sequences of the GenBank entries NM_001199370.1 (oxtr), NM_001199369.1 (oxtrl), NM_001301114.1 (avpr1aa), and NM_001297676.1 (avpr1ab) were used for synthesis. The stop codons were removed, and an additional […] was added to facilitate hybrid protein expression with GFP in frame from the vector. The GCCACC Kozak sequence was inserted before the start codons. After transformation of the plasmid constructs into TOP10 competent cells (Thermo Fisher Scientific), the Maxiprep (Thermo Fisher Scientific) method was used to amplify the plasmids for transfection.
(§2) The Inositol phosphate accumulation assay was performed according to previous descriptions to measure the potency of different ligands for zebrafish different oxytocin related receptors. Each receptor construct was transfected into HEK293 cells using Lipofectamine 2000 (Thermo Fisher Scientific). Myo2-^3H-inositol (PerkinElmer) at 3 μCi/mL was added the day after transfection. On day three, cells were re-suspended in assay buffer (10 mM LiCl, 20 mM HEPES, 137 mM NaCl, 5 mM KCl, 0.44 mM KH2PO4, 4.2 mM NaHCO3, 1.2 mM MgCl2, 1 mM CaCl2, and 10 mM glucose), after incubation in a PBS/EDTA mixture (0.2 g/L). After 10 minutes of pre-incubation at 37 °C, the cells were stimulated with serial dilution of peptides for 25 minutes at 37 °C. […] Cells were lysed for 60 minutes at 4 °C with an equal volume of 0.8 M perchloric acid, and then neutralised with KOH/KHCO3 solution. Ion exchange chromatography on AG 1-X8 resin (Bio-Rad) was used to collect the generated ^3H-inositol phosphates. The resin was washed with buffer containing 5 mM Na2B4O7 and 60 mM NH4-formate and eluted with buffer containing 1 M NH4-formate and 0.1 M formic acid. Samples were mixed with OptiPhase HiSafe (PerkinElmer Waltham, MA, USA) and ^3H radioactivity was measured with a Tri-Carb 2910TR liquid scintillation counter (PerkinElmer Waltham, MA, USA). The assays were performed in duplicate for each concentration and repeated at least 3 times.

The next assay addresses T2, Oxtrl (Danio rerio, UniProt E4W698).
T2 construct: host or cells: HEK293
T2 sequence (E4W698 1-382): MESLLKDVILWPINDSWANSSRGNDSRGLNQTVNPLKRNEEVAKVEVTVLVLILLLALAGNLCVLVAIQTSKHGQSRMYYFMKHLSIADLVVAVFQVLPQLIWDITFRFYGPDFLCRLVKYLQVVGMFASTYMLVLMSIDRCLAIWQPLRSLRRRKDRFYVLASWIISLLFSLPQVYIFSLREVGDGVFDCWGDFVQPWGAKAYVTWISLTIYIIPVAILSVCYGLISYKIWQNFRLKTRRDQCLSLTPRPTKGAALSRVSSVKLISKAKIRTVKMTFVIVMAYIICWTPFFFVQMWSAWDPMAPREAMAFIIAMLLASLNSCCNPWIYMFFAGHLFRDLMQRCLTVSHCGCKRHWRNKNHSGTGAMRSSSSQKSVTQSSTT
The experiment in a line: Inositol phosphate accumulation assay, agonist potency at Oxtrl. The assay is classed as cell-based, zebrafish. On the procedure:
as §1, §2

A further assay addresses T3, Oxtr (Danio rerio, UniProt E4W699).
T3 construct: host or cells: HEK293
T3 sequence (E4W699 1-388): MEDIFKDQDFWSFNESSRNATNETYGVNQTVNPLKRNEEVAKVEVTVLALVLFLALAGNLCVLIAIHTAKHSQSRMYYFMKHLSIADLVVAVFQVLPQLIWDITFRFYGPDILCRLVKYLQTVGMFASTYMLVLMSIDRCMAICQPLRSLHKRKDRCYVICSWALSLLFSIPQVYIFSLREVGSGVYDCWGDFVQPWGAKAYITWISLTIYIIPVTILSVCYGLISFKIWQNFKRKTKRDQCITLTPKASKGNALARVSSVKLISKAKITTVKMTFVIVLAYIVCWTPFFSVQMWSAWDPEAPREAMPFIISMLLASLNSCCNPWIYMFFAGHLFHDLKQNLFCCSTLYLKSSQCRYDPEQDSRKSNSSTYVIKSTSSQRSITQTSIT
The experiment in a line: Inositol phosphate accumulation assay, agonist potency at Oxtr. The assay is classed as cell-based, zebrafish. On the procedure:
as §1, §2

A further assay deals with T4, Avpr1ab (Danio rerio, UniProt A0A8M1P6E3).
T4 sequence (A0A8M1P6E3 1-410): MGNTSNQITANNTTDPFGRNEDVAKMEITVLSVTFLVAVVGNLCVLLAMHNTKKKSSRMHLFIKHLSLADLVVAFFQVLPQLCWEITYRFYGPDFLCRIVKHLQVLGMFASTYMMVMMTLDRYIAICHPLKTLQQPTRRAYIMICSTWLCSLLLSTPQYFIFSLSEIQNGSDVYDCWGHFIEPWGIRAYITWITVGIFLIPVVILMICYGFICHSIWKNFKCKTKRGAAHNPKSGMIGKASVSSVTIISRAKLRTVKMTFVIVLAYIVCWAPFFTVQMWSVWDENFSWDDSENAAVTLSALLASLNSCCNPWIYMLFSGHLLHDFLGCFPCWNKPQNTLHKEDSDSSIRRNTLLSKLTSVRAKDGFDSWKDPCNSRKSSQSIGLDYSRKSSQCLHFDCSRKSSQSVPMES
Put plainly: Inositol phosphate accumulation assay, agonist potency at Avpr1ab. The assay is classed as cell-based, zebrafish. On the procedure:
as §1, §2

[1] abbreviates: HEK293 cells transfected with zebrafish Avpr1aa, 3H-inositol phosphate accumulation, 10 min pre-incubation, 25 min stimulation, 37 °C, duplicates, table: mean ± SEM, n = 3 (zOT n = 4), read-out: Potency (EC50) at Avpr1aa.
[2] abbreviates: read-out: Potency (EC50) at Oxtrl.
Setting [3] is: HEK293 cells transfected with zebrafish Avpr1ab, 3H-inositol phosphate accumulation, 10 min pre-incubation, 25 min stimulation, 37 °C, duplicates, table: mean ± SEM, n = 3, read-out: Potency (EC50) at Avpr1ab.

Several values for one entry are separate records, joined by “and”; a condition that tells them apart may be missing. Equal entries are not always repeated. Where two headings read alike, the source gives them in different places. Positions of bridges follow the written chain, without caps; N, C: chain ends. Residues, ends and D or L forms follow the SMILES beside them.

With `C[C@]12N[C@H](Cc3ccccc31)c1ccccc12` [MK-801], the Social preference deficits entry in the assay with zebrafish (zebrafish) is “deficits in social preference induced”.
In the case of `CC[C@H](C)[C@@H]1NC(=O)[C@H](Cc2ccc(O)cc2)NC(=O)[C@@H](N)CSSC[C@@H](C(=O)N2CCC[C@H]2C(=O)N[C@@H](CC(C)C)C(=O)NCC(N)=O)NC(=O)[C@H](CC(N)=O)NC(=O)[C@H](CCC(N)=O)NC1=O` [OT], the EC50 on Avpr1aa (setting [1]) is 20 to 50 nM and 21.5 nM; on Oxtrl (setting [2]), 20 to 50 nM and 34.8 nM; at Oxtr, 20 to 50 nM and 47.9 nM; at Avpr1ab (setting [3]), 20 to 50 nM and 42.1 nM.
In the case of `CCO` [ethanol], the “Social preference, developing zebrafish” value in the assay with zebrafish (high concentrations) was “inhibit social preference”.
Take `CC[C@H](C)[C@@H]1NC(=O)[C@H](Cc2ccc(O)cc2)NC(=O)[C@@H](N)CSSC[C@@H](C(=O)N2CCC[C@H]2C(=O)N[C@H](C(=O)NCC(N)=O)[C@@H](C)CC)NC(=O)[C@H](CC(N)=O)NC(=O)[C@H](CO)NC1=O` [zOT] (H-CYISNCPIG-NH2; disulfide 1-6): the EC50 on Avpr1aa (setting [1]) is 317 ± 79 nM; on Oxtrl (setting [2]), 3.14 ± 1.1 nM; on Oxtr (HEK293 cells transfected with zebrafish Oxtr, 3H-inositol phosphate accumulation, 10 min pre-incubation, 25 min stimulation, 37 °C, duplicates, table: mean ± SEM, n = 3, read-out: Potency (EC50) at Oxtr), 2.99 ± 0.93 nM; on Avpr1ab (setting [3]), 3.52 ± 0.94 nM.
For `CC[C@H](C)[C@@H]1NC(=O)[C@H](Cc2ccc(O)cc2)NC(=O)[C@@H](N)CSSC[C@@H](C(=O)N2CCC[C@H]2C(=O)N[C@@H](CCCNC(=N)N)C(=O)NCC(N)=O)NC(=O)[C@H](CC(N)=O)NC(=O)[C@H](CCC(N)=O)NC1=O` [zVP] (H-CYIQNCPRG-NH2; disulfide 1-6), the concentration giving a half-maximal response (EC50) is > 317 nM and 727 nM on Avpr1aa; 27 ± 9.5 nM at Oxtrl; 11 ± 3 nM on Oxtr; 2.79 ± 1.4 nM on Avpr1ab.
As for carbetocin, the “Social deficits following MK-801 exposure” value with zebrafish (zebrafish exposed to glutamate antagonist MK-801) was “rescued social deficits”.
